For 34 compounds, IC50 and inhibition results are on record in patent US11186564B2, “Dual NAV1.2/5HT2a inhibitors for treating CNS disorders” (Sunovion Pharmaceuticals Inc., priority 2016, dated 2021).

Like-named read-outs stand apart in the source and are kept apart here. Some results are limits rather than exact numbers.

The IC50 is the concentration at which inhibition is half-maximal.

Experiment [1] deals with T1, recombinant human serotonin receptor 5-HT2A (Homo sapiens, UniProt P28223).
T1 construct: expressed in transfected cells; method B: loaded with Ca2+ dye
T1 sequence (P28223 whole entry): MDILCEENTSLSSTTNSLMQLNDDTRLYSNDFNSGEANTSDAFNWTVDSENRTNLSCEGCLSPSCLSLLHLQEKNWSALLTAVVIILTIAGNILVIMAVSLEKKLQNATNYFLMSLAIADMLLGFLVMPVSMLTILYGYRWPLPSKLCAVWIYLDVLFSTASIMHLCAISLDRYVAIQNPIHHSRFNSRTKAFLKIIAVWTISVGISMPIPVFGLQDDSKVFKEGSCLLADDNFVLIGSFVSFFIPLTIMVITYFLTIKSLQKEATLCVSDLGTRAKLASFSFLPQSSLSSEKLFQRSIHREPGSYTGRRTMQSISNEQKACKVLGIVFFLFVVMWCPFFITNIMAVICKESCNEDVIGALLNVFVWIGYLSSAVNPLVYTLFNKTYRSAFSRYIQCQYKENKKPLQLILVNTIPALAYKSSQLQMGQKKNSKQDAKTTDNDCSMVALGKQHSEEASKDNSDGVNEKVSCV
Put plainly: 5-HT2A antagonist Ca2+ assay in CHO-K1 cells (method A aequorin luminescence / method B FLIPR fluorescence). Format: cell-based. As to conditions: antagonist mode vs EC80 of reference agonist, method A or B. A digest of the protocol: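 Method A: CHO-K1 cells co-expressing human 5-HT2A and mitochondrial apoaequorin were given reference agonist at EC80 15 min after compound, with luminescence read. Method B: dye-loaded 5-HT2A CHO-K1 cells were pretreated with compound, then given serotonin at EC80, with FLIPR fluorescence read. IC50s came from nonlinear fits of percent inhibition.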

Experiment [2] addresses human sodium channel NaV1.2 (Homo sapiens, UniProt Q99250). Put plainly: NaV1.2 inhibition, automated patch-clamp (Q-Patch HTX), slow inactivated state (state C). Format: cell-based. As to conditions: hNaV1.2 CHO cells, slow inactivated state; for IC50: read-out: NaV1.2 IC50; for inhibition at 10 µM: 10 μM compound, read-out: NaV1.2 (% inh), 10 μM; for inhibition at 1 µM: 1 μM compound, read-out: NaV1.2 (% inh), 1 μM. A digest of the protocol:
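CHO K-1 cells stably expressing human NaV1.2, whole-cell automated patch clamp, holding −100 mV; slow-inactivated state (state C) read at a 5 ms step to 0 mV after 10 s at −50 mV and 15 ms at −90 mV. Percent inhibition vs vehicle; IC50 by nonlinear least-squares fit.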
A general note: The patch-clamp technique gives a direct electrical read-out from membranes.

Sequence of human sodium channel NaV1.2 (Q99250 whole entry): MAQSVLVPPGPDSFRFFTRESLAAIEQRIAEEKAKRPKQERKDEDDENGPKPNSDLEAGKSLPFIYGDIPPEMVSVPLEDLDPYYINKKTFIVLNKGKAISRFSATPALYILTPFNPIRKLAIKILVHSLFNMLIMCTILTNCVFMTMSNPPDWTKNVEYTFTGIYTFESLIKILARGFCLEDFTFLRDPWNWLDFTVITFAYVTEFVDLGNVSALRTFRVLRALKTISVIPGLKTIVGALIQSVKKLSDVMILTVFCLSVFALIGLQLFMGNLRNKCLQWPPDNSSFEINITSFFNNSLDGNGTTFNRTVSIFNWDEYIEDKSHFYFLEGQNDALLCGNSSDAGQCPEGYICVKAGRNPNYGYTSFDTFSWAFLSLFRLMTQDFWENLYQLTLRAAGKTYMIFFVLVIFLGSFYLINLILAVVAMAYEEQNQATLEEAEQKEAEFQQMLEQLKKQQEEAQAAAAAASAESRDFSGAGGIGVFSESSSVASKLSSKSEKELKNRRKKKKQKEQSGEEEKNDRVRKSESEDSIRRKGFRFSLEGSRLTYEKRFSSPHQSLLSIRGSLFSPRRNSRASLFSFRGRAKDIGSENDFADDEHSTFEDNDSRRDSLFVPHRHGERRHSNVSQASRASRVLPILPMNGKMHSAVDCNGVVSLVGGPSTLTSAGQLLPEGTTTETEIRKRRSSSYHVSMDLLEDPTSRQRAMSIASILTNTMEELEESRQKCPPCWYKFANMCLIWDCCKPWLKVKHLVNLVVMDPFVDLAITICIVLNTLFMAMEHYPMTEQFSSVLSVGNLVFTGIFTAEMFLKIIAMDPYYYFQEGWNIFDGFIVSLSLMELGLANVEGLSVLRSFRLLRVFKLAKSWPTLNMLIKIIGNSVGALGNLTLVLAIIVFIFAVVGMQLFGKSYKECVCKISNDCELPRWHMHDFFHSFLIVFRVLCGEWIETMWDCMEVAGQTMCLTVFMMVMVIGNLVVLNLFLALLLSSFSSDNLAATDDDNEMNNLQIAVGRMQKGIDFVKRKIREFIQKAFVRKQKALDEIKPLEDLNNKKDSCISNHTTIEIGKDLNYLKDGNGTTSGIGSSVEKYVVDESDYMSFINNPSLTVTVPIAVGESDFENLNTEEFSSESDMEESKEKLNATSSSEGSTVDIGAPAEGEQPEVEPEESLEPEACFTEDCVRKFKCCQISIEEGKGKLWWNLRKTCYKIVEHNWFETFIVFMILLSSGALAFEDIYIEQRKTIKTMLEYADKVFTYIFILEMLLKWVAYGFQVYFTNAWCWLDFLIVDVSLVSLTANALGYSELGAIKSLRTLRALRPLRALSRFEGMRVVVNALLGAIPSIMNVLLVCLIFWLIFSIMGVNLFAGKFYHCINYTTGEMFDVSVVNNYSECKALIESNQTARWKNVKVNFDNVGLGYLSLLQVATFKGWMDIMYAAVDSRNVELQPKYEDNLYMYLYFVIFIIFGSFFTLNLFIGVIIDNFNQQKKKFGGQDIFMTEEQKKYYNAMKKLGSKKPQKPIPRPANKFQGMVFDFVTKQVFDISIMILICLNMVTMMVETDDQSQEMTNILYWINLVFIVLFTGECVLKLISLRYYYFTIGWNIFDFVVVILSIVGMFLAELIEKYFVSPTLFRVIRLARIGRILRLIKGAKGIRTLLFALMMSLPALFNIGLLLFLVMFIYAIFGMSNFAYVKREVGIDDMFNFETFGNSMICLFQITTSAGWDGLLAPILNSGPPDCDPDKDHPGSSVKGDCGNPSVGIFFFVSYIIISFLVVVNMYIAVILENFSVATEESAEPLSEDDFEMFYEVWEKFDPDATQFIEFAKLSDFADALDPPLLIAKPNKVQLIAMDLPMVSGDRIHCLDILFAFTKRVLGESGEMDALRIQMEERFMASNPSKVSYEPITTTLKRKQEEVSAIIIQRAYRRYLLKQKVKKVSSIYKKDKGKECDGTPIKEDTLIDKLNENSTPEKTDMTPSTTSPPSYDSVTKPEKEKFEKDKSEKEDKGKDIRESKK

Regarding `OC(COC1CCCCC1)CN1[C@@H]2CC[C@H]1CN(c1ccccc1)C2` (stereo partly drawn) [Example 286, 1-(cyclohexyloxy)-3-((1R,5S)-3-phenyl-3,8-diazabicyclo[3.2.1]octan-8-yl)propan-2-ol], the IC50 in experiment [1] (5HT2A IC50, μM) came out at 0.01 µM; in experiment [2], 1250 nM.
`O=C(CN1CCN(c2cccc(Cl)c2)CC1)c1ccccc1` [Example 66, 2-(4-(3-chlorophenyl)piperazin-1-yl)-1-phenylethan-1-one]: the IC50 in experiment [1] (read-out: 5HT2A IC50) came to 0.89 µM. For the same compound, the inhibition at 10 µM in experiment [2] turned out to be 55%.
As to `c1ccc2c(c1)CC1(CCN(CC3CCc4ccccc43)CC1)CO2` (centres unmarked) [Example 442, 1′-((2,3-dihydro-1H-inden-1-yl)methyl)spiro[chromane-3,4′-piperidine]], in experiment [1] (read-out: 5HT2A IC50), the half-maximal inhibitory concentration (IC50) stood at 0.59 µM. Further, in experiment [2], the inhibition at 1 µM is 37%.
On to `c1ccc2c(c1)CCC1(CCN(CCO[C@H]3CCc4ccccc43)CC1)O2` [Example 432], for which the half-maximal inhibitory concentration (IC50) in experiment [1] (read-out: 5HT2A IC50) stood at 0.15 µM; in experiment [2] it was 360 nM.
Regarding `O[C@@H](COc1ccccc1)CN1CCC2(CCc3ccccc3O2)CC1` [Example 441, (R)-1-phenoxy-3-(spiro[chromane-2,4′-piperidin]-1′-yl)propan-2-ol], the IC50 in experiment [1] (read-out: 5HT2A IC50) came out at 0.03 µM. In addition, the inhibition at 1 µM in experiment [2] is 17%.
For `OC(COC1CCCCC1)CN1CCC2(CCc3ccccc3O2)CC1` (centres unmarked) [Example 436, 1-(cyclohexyloxy)-3-(spiro[chromane-2,4′-piperidin]-1′-yl)propan-2-ol], the IC50 in experiment [1] (read-out: 5HT2A IC50) came out at 0.02 µM; in experiment [2] it was 260 nM.
In the case of `COc1cccc(CN2CCC3(CCc4ccccc4O3)CC2)c1` [Example 417, 1′-(3-methoxybenzyl) spiro[chromane-2,4′-piperidine]], the IC50 in experiment [1] (read-out: 5HT2A IC50) is 0.69 µM. Moreover, in experiment [2], the inhibition at 10 µM was 94%.
Take `COc1ccc2c(c1)C(CN1CCC(OCc3ccc(F)cc3)CC1)CC2` (centres unmarked) [Example 247, 4-((4-fluorobenzyl)oxy)-1-((6-methoxy-2,3-dihydro-1H-inden-1-yl)methyl)piperidine]: the half-inhibitory concentration (IC50) in experiment [1] (read-out: 5HT2A IC50) came out at 0.1 µM; in experiment [2], 270 nM.
In the same order, the values of `COc1ccccc1OC1CCN(CC2CCc3ccccc32)CC1(C)C` (centres unmarked) [Example 103, 1-((2,3-dihydro-1H-inden-1-yl)methyl)-4-(2-methoxyphenoxy)-3,3-dimethylpiperidine] are 0.22 µM and 3130 nM.
`c1ccc(CC2CN(CC3CCc4ccccc43)CCO2)cc1` (centres unmarked) [Example 251, 2-benzyl-4-((2,3-dihydro-1H-inden-1-yl)methyl)morpholine]: the concentration for half-maximal inhibition (IC50) in experiment [1] (read-out: 5HT2A IC50) was 0.37 µM. The inhibition at 1 µM in experiment [2] worked out at 23%.
As to `c1ccc(OCCN2CCN(c3nsc4ccccc34)CC2)cc1` [Example 70, 3-(4-(2-phenoxyethyl)piperazin-1-yl)benzo[d]isothiazole], the concentration for half-maximal inhibition (IC50) in experiment [1] (read-out: 5HT2A IC50) was 0.004 µM; in experiment [2], 1700 nM.
For `OC(COc1ccccc1)CN1CCC2(CC1)Cc1ccccc1O2` (centres unmarked) [Example 399, 1-phenoxy-3-(3H-spiro[benzofuran-2,4′-piperidin]-1′-yl)propan-2-ol], the half-inhibitory concentration (IC50) in experiment [1] (read-out: 5HT2A IC50) is 1.83 µM. The inhibition at 10 µM in experiment [2] stood at 92%.
Consider `OC(COC1CCCCC1)CN1C[C@H]2CC[C@@H](C1)N2c1ccccc1` (stereo partly drawn) [Example 299, 1-(cyclohexyloxy)-3-((1R,5S)-8-phenyl-3,8-diazabicyclo[3.2.1]octan-3-yl)propan-2-ol], for which the concentration for half-maximal inhibition (IC50) was found to be 1.72 µM in experiment [1] (read-out: 5HT2A IC50) and 3570 nM in experiment [2].
As for `COc1ccccc1CCN1CCC2(CCc3ccccc3O2)CC1` [Example 428, 1′-(2-methoxyphenethyl) spiro[chromane-2,4′-piperidine]], in experiment [1] (read-out: 5HT2A IC50), the IC50 stood at 0.19 µM. Also, the inhibition at 10 µM in experiment [2] is 86%.
Consider `O=C1c2ccccc2CCN1CCN1C[C@H]2CC[C@@H](C1)N2c1ccccc1` [Example 297, 2-(2-((1R,5S)-8-phenyl-3,8-diazabicyclo[3.2.1]octan-3-yl)ethyl)-3,4-dihydroisoquinolin-1(2H)-one], for which the concentration for half-maximal inhibition (IC50) in experiment [1] (read-out: 5HT2A IC50) is greater than 16.7 µM. Also, the inhibition at 1 µM in experiment [2] was -4%.
Turning to `Fc1ccc(N2CCC3(CCN(CC4Cc5cccnc5C4)C3)C2)cc1` (centres unmarked) [Example 339, 2-((6,7-dihydro-5H-cyclopenta[b]pyridin-6-yl)methyl)-7-(4-fluorophenyl)-2,7-diazaspiro[4.4]nonane], the IC50 in experiment [1] (read-out: 5HT2A IC50) was 0.87 µM; in experiment [2] it was 2270 nM.
For the compound `Fc1ccc(OC2CCCN(CC3CCc4ccccc43)CC2)cc1` (centres unmarked) [Example 271, 1-((2,3-dihydro-1H-inden-1-yl)methyl)-4-(4-fluorophenoxy)azepane], in experiment [1] (read-out: 5HT2A IC50), the concentration for half-maximal inhibition (IC50) was 0.23 µM. Besides, the inhibition at 1 µM in experiment [2] is 44%.
In the case of `COc1ccc2c(c1)C(CN1CC3(CC(Oc4ccc(F)cc4)CO3)C1)CC2` (centres unmarked) [Example 369, 7-(4-fluorophenoxy)-2-((6-methoxy-2,3-dihydro-1H-inden-1-yl)methyl)-5-oxa-2-azaspiro[3.4]octane], in experiment [1] (read-out: 5HT2A IC50), the concentration for half-maximal inhibition (IC50) was 0.29 µM. In experiment [2], the inhibition at 10 µM was determined as 64%.
Regarding `COc1ccc2c(c1)C(CN1CCC(Oc3ccccc3C#N)CC1)CC2` (centres unmarked) [Example 98, 2-((1-((6-methoxy-2,3-dihydro-1H-inden-1-yl)methyl)piperidin-4-yl)oxy)benzonitrile], the half-maximal inhibitory concentration (IC50) in experiment [1] (read-out: 5HT2A IC50) amounted to 0.01 µM. In addition, the inhibition at 1 µM in experiment [2] stood at 37%.
With `c1ccc(C2COC3(CCN(CC4CCc5ccccc54)CC3)C2)cc1` (single isomer, unassigned) [Example 375, 8-((2,3-dihydro-1H-inden-1-yl)methyl)-3-phenyl-1-oxa-8-azaspiro[4,5]decane], the IC50 in experiment [1] (read-out: 5HT2A IC50) worked out at 0.26 µM; in experiment [2], 350 nM.
For the compound `CC1(C)Oc2ccccc2C1CN1CCC(Oc2ccccc2)CC1` (centres unmarked) [Example 131, 1-((2,2-dimethyl-2,3-dihydrobenzofuran-3-yl)methyl)-4-phenoxypiperidine], the half-inhibitory concentration (IC50) in experiment [1] (read-out: 5HT2A IC50) was determined as 0.29 µM. The inhibition at 1 µM in experiment [2] is -1%.
`c1ccc(N2C[C@@H]3C[C@H]2CN3CC2CCc3ccccc32)cc1` (stereo partly drawn) [Example 303, (1S,4S)-2-((2,3-dihydro-1H-inden-1-yl)methyl)-5-phenyl-2,5-diazabicyclo[2.2.1]heptane]: the 50% inhibitory concentration (IC50) in experiment [1] (read-out: 5HT2A IC50) is 2.6 µM; in experiment [2] it was 1820 nM.
In the same order, the values of `CC(=O)Nc1ccc(OCC(O)CN2CCN(c3ccc(C)c(Cl)c3)CC2)cc1` (centres unmarked) [Example 90, N-(4-(3-(4-(3-chloro-4-methylphenyl)piperazin-1-yl)-2-hydroxypropoxy)phenyl)acetamide] are 0.01 µM and 59500 nM.
In the same order, the values of `COc1ccccc1OC1CCN(CC2c3ccccc3CC2C)CC1` (centres unmarked) [Example 101, 4-(2-methoxyphenoxy)-1-((2-methyl-2,3-dihydro-1H-inden-1-yl)methyl)piperidine] are 0.08 µM and 370 nM.
For the compound `O[C@@H](COC1CCCCC1)CN1CC2(CC(c3ccccc3)CO2)C1` (stereo partly drawn) [Example 361, (2R)-1-(cyclohexyloxy)-3-(7-phenyl-5-oxa-2-azaspiro[3.4]octan-2-yl)propan-2-ol], the IC50 was found to be 0.02 µM in experiment [1] (read-out: 5HT2A IC50) and 2710 nM in experiment [2].
With `Cc1ccccc1OCC(O)CN1CCC(c2nc3ccccc3s2)CC1` (centres unmarked) [Example 91, 1-(4-(benzo[d]thiazol-2-yl)piperidin-1-yl)-3-(o-tolyloxy)propan-2-ol], the half-inhibitory concentration (IC50) turned out to be 0.02 µM in experiment [1] (read-out: 5HT2A IC50) and 170 nM in experiment [2].
For `COCc1cccc(OC2CCN(CCN3CCc4ccccc4C3=O)CC2)c1` [Example 196, 2-(2-(4-(3-(methoxymethyl)phenoxy)piperidin-1-yl)ethyl)-3,4-dihydroisoquinolin-1(2H)-one], the IC50 in experiment [1] (read-out: 5HT2A IC50) is 0.36 µM. Also, the inhibition at 10 µM in experiment [2] turned out to be 67%.
As for `O=C1c2ccccc2CCN1CCN1C[C@@H]2C[C@H](C1)N(c1ccccc1)C2` [Example 329, 2-(2-((1S,5R)-6-phenyl-3,6-diazabicyclo[3.2.1]octan-3-yl)ethyl)-3,4-dihydroisoquinolin-1(2H)-one], the concentration for half-maximal inhibition (IC50) in experiment [1] (read-out: 5HT2A IC50) is greater than 16.7 µM. The inhibition at 1 µM in experiment [2] is 36%.
In the same order, the values of `O[C@H](CO[C@H]1CCCc2ccccc21)CN1CCN(Cc2ccccc2)CC1` [Example 87, (S)-1-(4-benzylpiperazin-1-yl)-3-(((S)-1,2,3,4-tetrahydronaphthalen-1-yl)oxy)propan-2-ol] are 3.63 µM and 15%.
In the same order, the values of `Fc1ccc(OC2CCN(CCC3CCOCC3)CC2)cc1` [Example 170, 4-(4-fluorophenoxy)-1-(2-(tetrahydro-2H-pyran-4-yl)ethyl)piperidine] are 1.11 µM and 5%.
As for `COc1ccccc1OC1CCN(CC2c3ccccc3CC2(C)C)CC1` (centres unmarked) [Example 100], the concentration for half-maximal inhibition (IC50) in experiment [1] (read-out: 5HT2A IC50) worked out at 0.71 µM; in experiment [2] it was 2600 nM.
On to `COc1ccc2c(c1)C(CN1CCC(Oc3ccccn3)CC1)CC2` (centres unmarked) [Example 95, 2-((1-((6-methoxy-2,3-dihydro-1H-inden-1-yl)methyl)piperidin-4-yl)oxy)pyridine], for which, in experiment [1] (read-out: 5HT2A IC50), the concentration for half-maximal inhibition (IC50) was 0.15 µM. Moreover, in experiment [2], the inhibition at 1 µM turned out to be 9%.
Regarding `c1ccc(N2C[C@@H]3CC[C@H]2CN3CCC2COCc3ccccc32)cc1` (stereo partly drawn) [Example 315, (1S,4S)-2-(2-(isochroman-4-yl)ethyl)-5-phenyl-2,5-diazabicyclo[2.2.2]octane], the half-inhibitory concentration (IC50) in experiment [1] (read-out: 5HT2A IC50) was 5.28 µM. Besides, the inhibition at 1 µM in experiment [2] was 5%.
Regarding `COc1ccc2c(c1)C(CN1CCC[C@@H](Oc3ccc(F)cc3)C1)CC2` (stereo partly drawn) [Example 255, (3R)-3-(4-fluorophenoxy)-1-((6-methoxy-2,3-dihydro-1H-inden-1-yl)methyl)piperidine], the 50% inhibitory concentration (IC50) in experiment [1] (read-out: 5HT2A IC50) stood at 0.36 µM. Also, the inhibition at 1 µM in experiment [2] was 14%.
